According to PubChem BioAssay AID602166 (The Scripps Research Institute Molecular Screening Center, 2012):
Active and inactive are the calls of the source. How the calls were made is not given here.

Target: Nuclear receptor coactivator 3 (Homo sapiens) (UniProt Q9Y6Q9)
Assay: NCOA3 reporter inhibition potency – cell-based, luminescence, dose response (AID 602166);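 further: potency for reduction of SRC3 reporter signal so compounds are inhibitors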
Conditions: SRC3 luciferase reporter cell assay

Nuclear receptor coactivator 3 (Homo sapiens), sequence (Q9Y6Q9 whole entry, looked up): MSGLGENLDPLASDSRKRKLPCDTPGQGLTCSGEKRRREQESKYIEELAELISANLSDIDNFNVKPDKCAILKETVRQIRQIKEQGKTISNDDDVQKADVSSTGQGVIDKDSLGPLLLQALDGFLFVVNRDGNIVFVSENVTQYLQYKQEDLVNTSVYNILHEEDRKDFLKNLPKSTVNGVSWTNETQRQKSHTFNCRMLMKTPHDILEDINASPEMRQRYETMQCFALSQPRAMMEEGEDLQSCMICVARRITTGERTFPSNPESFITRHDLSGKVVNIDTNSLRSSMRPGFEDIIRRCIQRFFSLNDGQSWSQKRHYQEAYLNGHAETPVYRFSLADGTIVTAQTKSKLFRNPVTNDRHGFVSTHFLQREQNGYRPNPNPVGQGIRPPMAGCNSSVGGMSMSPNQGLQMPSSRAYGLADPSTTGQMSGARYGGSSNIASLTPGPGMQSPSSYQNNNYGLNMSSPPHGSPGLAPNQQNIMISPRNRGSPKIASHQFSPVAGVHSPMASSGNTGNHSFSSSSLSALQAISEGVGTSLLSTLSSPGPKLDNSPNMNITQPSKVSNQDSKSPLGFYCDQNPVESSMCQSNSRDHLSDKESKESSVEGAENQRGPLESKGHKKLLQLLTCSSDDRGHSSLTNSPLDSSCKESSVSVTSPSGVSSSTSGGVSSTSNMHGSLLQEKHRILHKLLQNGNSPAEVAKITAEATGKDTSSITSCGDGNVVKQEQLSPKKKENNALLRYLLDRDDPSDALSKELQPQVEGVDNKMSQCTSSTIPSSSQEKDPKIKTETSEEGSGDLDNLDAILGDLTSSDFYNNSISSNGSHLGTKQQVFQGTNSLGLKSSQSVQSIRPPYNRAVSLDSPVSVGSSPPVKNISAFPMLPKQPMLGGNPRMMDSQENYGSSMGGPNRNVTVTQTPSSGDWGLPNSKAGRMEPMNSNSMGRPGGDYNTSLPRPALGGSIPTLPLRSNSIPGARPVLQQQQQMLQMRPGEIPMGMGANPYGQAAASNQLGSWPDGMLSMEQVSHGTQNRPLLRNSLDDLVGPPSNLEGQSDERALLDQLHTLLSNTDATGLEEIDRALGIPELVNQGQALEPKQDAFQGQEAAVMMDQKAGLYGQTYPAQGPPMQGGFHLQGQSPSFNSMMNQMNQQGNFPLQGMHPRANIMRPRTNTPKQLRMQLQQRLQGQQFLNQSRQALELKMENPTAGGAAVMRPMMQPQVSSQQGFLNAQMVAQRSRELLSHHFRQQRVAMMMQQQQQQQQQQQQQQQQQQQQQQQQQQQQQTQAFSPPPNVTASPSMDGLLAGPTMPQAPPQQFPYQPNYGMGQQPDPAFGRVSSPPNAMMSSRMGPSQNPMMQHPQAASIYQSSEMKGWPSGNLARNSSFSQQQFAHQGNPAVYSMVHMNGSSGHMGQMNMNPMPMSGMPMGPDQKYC

SMILES	IC50
O=C(CC1CS(=O)(=O)CC1CC(=O)Nc1ccc2c(c1)OCCO2)Nc1ccc2c(c1)OCCO2 (stereo not drawn)	> 35.9 µM (inactive)
O=C(NCCc1ccccc1)c1ccc2c(c1)OCCO2	9.59 µM
O=[N+]([O-])c1cccc2c1ccc1ncccc12	8.07 µM
Nc1ccc(Oc2ccccc2-c2ccccc2)cc1	inactive
CCCc1c(C)nc2ccccc2c1SCCC#N	7.93 µM
COc1ccc(COC(=O)C2=C(C)NC(=O)NC2c2ccc(F)cc2)cc1 (stereo not drawn)	7.71 µM
CC(=O)OCCN1c2ccccc2Sc2cnccc21	5.67 µM
Brc1ccc2ncc3ccccc3c2c1	8.02 µM
O=C(CCl)N(c1ccccc1)C1CCS(=O)(=O)C1 (stereo not drawn)	6.92 µM
COc1ccc(OC)c(Cc2cnc3nc(N)nc(N)c3c2C)c1	7.45 µM
Fc1ccc(CSc2nnc(-c3ccncc3)o2)cc1	2.44 µM
Cc1cccc2sc(NNC(=O)c3ccc(S(=O)(=O)N4CC(C)CC(C)C4)cc3)nc12 (stereo not drawn)	5.91 µM
COc1ccc(CCNC(=O)c2nnn(-c3ccc4c(c3)OCCO4)c2N)cc1OC	> 35.9 µM (inactive)
COc1ccc(C)cc1NS(=O)(=O)c1ccc(NC(=O)CN(c2cc([N+](=O)[O-])ccc2C)S(C)(=O)=O)cc1	inactive
O=C(COc1ccc(Cl)cc1)Nc1ccc(C(=O)NCc2cccnc2)cc1	inactive
O=C(N/N=C\c1ccc([N+](=O)[O-])o1)C1COc2ccccc2O1 (stereo not drawn)	> 35.9 µM (inactive)
Cc1cc(/C=C2\Cc3ccccc3C2=O)c(C)n1-c1ccccc1	> 35.9 µM (inactive)
c1cc2[nH]snc2c2nc(C3CC3)nc12	1.62 µM
CCCC(=O)NC(c1ccc2c(c1)OCO2)c1cc(Cl)c2cccnc2c1O (stereo not drawn)	7.71 µM
CCOc1ccc(/C=C2\SC(=S)N(CCCC(=O)NCCCN3CCOCC3)C2=O)cc1	inactive
COc1ccc(/C=C2/SC(=S)N(CCC(=O)O)C2=O)cc1	> 35.9 µM (inactive)
CCOc1cc(C(N)=O)cc(Br)c1OC	5.79 µM
O=C(CCl)N(c1ccccc1)C1CCCCC1	8.7 µM
CC(C)(C)n1ncc2c(=O)n(CC(=O)OCc3ccccc3)cnc21	> 35.9 µM (inactive)
O=c1[nH]c2ccccc2n1C1CCN(C(c2ccccc2)c2nnnn2-c2ccc3c(c2)OCCO3)CC1 (stereo not drawn)	inactive
O=c1[nH]c(O)c(N=Nc2ccc3c(c2)OCCO3)c(=O)[nH]1	> 35.9 µM (inactive)
O=c1[nH]c2ccccc2n1C1CCN(C(c2ccccc2)c2nnnn2Cc2ccccc2)CC1 (stereo not drawn)	inactive

SMILES	IC50
Cc1ccc2occ(/C=N/NC(=O)c3ccccc3Br)c(=O)c2c1	inactive
Fc1ccccc1-c1csc(=Nc2cccnc2)n1CCCn1ccnc1	5.27 µM
O=C(CNc1cccc([N+](=O)[O-])c1)N/N=C/c1ccc([N+](=O)[O-])o1	inactive
CC(=O)Nc1ccc(SCC(=O)c2cc(C)n(-c3ccccc3F)c2C)cc1	> 35.9 µM (inactive)
Cc1cccc(CN2CCN(C(=O)CCl)CC2)c1	> 35.9 µM (inactive)
COc1cc2c(c(OC)c1OC)-c1ccc(SC)c(=O)cc1C(NC=O)CC2 (stereo not drawn)	inactive
CCOC(=O)C(C(C)=O)c1c(Br)c(O)c(O)c2c(C(=O)c3ccc(C)cc3)coc12 (stereo not drawn)	4.11 µM
CCOc1ccc(CC(=O)Nc2ccc(NC(=O)c3ccco3)cc2)cc1OCC	4.24 µM
CCn1c2ccccc2c2cnc(N=CN(C)C)c(C#N)c21	4.94 µM
Nc1nc(CCl)nc(Nc2cccc3ccccc23)n1	inactive
COCCNC(=O)c1cc(-c2ccccn2)nc2ccc(S(=O)(=O)N3CCC(C)CC3)cc12	> 35.9 µM (inactive)
COc1cccc(/C=N/Nc2cc(-n3nc(C)cc3-c3ccccc3)ncn2)c1O	4.12 µM
COc1ccc(/C=C2\CC/C(=C\c3ccc(OC)c(OC)c3)C2=O)cc1OC	6.33 µM
C(=N\Nc1ccc2ccccc2n1)/c1ccc2c(c1)OCCO2	inactive
CS(=O)c1nc(-c2ccc(Br)cc2)cc(-c2ccccc2)c1C#N (stereo not drawn)	inactive
CCn1nc(/C=C/c2ccccc2)nc2c(=O)n(C)c(=O)nc1-2	> 35.9 µM (inactive)
COc1ccc(-c2cn[nH]c2-c2ccc(OC)cc2O)cc1	2.89 µM
CN(C)c1ccc(/C=C/c2ccc3ccccc3n2)cc1	5.65 µM
COc1cc(C2c3cc4c(cc3C(OC3OC5COC(c6cccs6)OC5C(O)C3O)C3COC(=O)C23)OCO4)cc(OC)c1O (stereo not drawn)	0.093 µM
CN(C)c1ccc(CNC(=O)CCNS(=O)(=O)c2cc(Br)cnc2N)cc1	4.34 µM
COC(=O)c1c(C)n(-c2ccc(OC)cc2)c2ccc(O)cc12	3.99 µM
NC(=S)NN=Cc1nccc2c(N)cccc12	2.42 µM
COc1ccccc1N(C(=O)CCl)c1cn(C(C)=O)c2ccccc12	8.1 µM
COc1ccc(C(C(=O)NC2CCCCC2)N(C(=O)CCl)c2ccc(Cl)cc2)cc1 (stereo not drawn)	3.7 µM
CN1C(=O)C2(C(C#N)=C(N)N(c3cc(Cl)cc(Cl)c3)C3=C2C(=O)CCC3)c2ccccc21 (stereo not drawn)	2.63 µM
O=C(N/N=C(\c1ccccc1)c1ccccn1)c1ccccc1Cl	inactive
